Data from PMC9082918, “Time-course changes in DNA damage of corneal epithelial cells in rabbits following ocular instillation with genotoxic compounds” (Genes and Environment, 2022).
Where two headings read alike, the source gives them in different places. Marks after values point to notes of the source that are not given here.

Key:
[1] = tested on: corneal epithelial cells of rabbit; assay: In vivo alkaline comet assay of corneal epithelial cells after single ocular instillation
Protocol: Experiments were performed per sampling time, and […] clinically normal rabbits were randomly assigned to each treatment group.
After ocular instillation, the eyelids were artificially blinked several times. The rabbits were euthanized after 0.5, 2, 4, 6, and 24 h by intravenously administering an overdose (approximately 90 mg/kg) of thiopental solution (Ravonal; Nipro ES Pharma Co. Ltd., Osaka, Japan). The eyeballs of the rabbits were collected after euthanasia and subjected to the comet assay.
The collected eyes were washed with Ca^2+- and Mg^2+-free phosphate-buffered saline (PBS). After washing, the corneas were removed from the eyes using scissors. The removed corneas were treated with 1.2 unit/mL Dispase II (Roche Diagnostics K.K., Tokyo, Japan) in minimum essential media (MEM; Thermo Fisher Scientific K. K., Tokyo, Japan) supplemented with 10% bovine serum (10% BS/MEM) overnight at 4 °C. Corneal epithelial cells were isolated using a spatula and placed into fresh 10% BS/MEM. The cells were centrifuged at 200×g for 5 min, and the supernatants were discarded. The cells were resuspended in 1 mL of 0.25% trypsin (Thermo Fisher Scientific K. K.) and incubated for 10 min at 37 °C. Furthermore, 8 mL of 10% BS/MEM was added to the cells, and the cell suspensions were passed through a 70-μm cell strainer. The cells were centrifuged at 200×g for 5 min, and the supernatants were discarded. The cells were then resuspended with PBS to a density of approximately 2 × 10^5 cells/mL.
The alkaline comet assay was conducted according to previously published method. A 30 μL of the prepared cell suspension was mixed with 270 μL of melted agarose solution (CometAssay LMAgarose; Trevigen, Inc., Gaithersburg, MD). Then, 30 μL of this mixture was placed in each well of a 20-well slide (CometSlide HT, Trevigen, Inc.), and the slide was left for approximately 10 min at 4 °C to solidify the agarose. The slide was immersed in lysis solution (pH 10) containing 2.5 M sodium chloride, 100 mM di-sodium dihydrogen ethylenediaminetetraacetate dihydrate (EDTA∙2Na), 10 mM tris(hydroxymethyl)aminomethane (Tris), and 1% (v/v) polyethylene glycol mono-p-isooctylphenyl ether for 1 h at 4 °C. Subsequently, the slide was immersed in an alkaline unwinding solution (200 mM sodium hydroxide and 1 mM EDTA, pH > 13) for 20 min at room temperature. Electrophoresis was performed with the same solution at 1 V/cm for 30 min under refrigeration. After electrophoresis, the slide was washed twice with ultrapure water and dehydrated by immersion in ethanol for 10 min. The slide was stained with SYBR Green I Nucleic Acid Gel Stain (excitation maxima at 497 nm, emission maxima at 520 nm; Thermo Fisher Scientific K. K.) diluted 1:1000 with Tris-EDTA buffer (pH 7.5) and mounted using ProLong Gold (Thermo Fisher Scientific K. K.). The slide was observed using a BX51 fluorescence microscope (Olympus Corporation, Tokyo, Japan) with a NIBA filter (excitation at 460–495 nm and emission at 510–550 nm) equipped with a CCD camera (scA1300-32 fm; Basler AG, Ahrensburg, Germany).
First, the number of “hedgehogs” was counted among 150 comets per eye (450 comets per group). According to the Atlas of Comet Assay Images, hedgehogs are highly fragmented cells presenting as a small or non-existent comet head and large diffuse comet tail. Second, 150 scorable comets (i.e., with a clearly defined head and tail with no interference from neighboring cells) without hedgehogs were measured per eye (450 comets per group).

[2] = tested on: anterior segment of the eye; assay: Ophthalmological examination of anterior ocular segment (slit-lamp, fluorescein staining); type: in vivo, rabbit
Protocol: (§1) Twenty-four hours after administration, the anterior segment of the eye was observed using a slit-lamp biomicroscope SL-130 (Carl Zeiss Meditec AG, Jena, Germany). The corneal epithelial damage was evaluated by staining with fluorescein (AYUMI Pharmaceutical Corporation, Tokyo, Japan). After anterior ocular observation, the rabbits were euthanized in the same manner as the comet assay, and the eyeballs of the rabbits were collected.

rabbit cornea = assay: Histopathological examination of cornea; settings: in vivo
Protocol: as §1
The collected eyes (one eye per group) were fixed with 1% formaldehyde/2.5% glutaraldehyde in 0.1 M phosphate buffer fixative overnight at 4 °C and post-fixed with 10% neutral-buffered formalin solution. The tissues were dehydrated using a graded alcohol series and embedded in paraffin. Approximately 3-μm-thick corneal tissue sections were prepared and stained with hematoxylin and eosin. All microscopic images were obtained with a BX53 microscope fitted with a DP74 digital camera (Olympus Corporation) and analyzed using the cellSens Standard imaging software, version 2.3 (Olympus Corporation).

HCE-T cells [3] = assay: In vitro comet assay after 1 min exposure; type: cell-based, human
Protocol: To assess time-course changes in DNA damage after short-time exposure to the genotoxic compounds, the in vitro comet assay was performed using HCE-T cells with reference to our previous study. Briefly, the HCE-T cells were seeded in a 12-well culture plate at a density of 5 × 10^4 cells/well (1 mL/well) and incubated for approximately 24 h. After a 24-h incubation, the cells were washed with PBS. […] After the treatment, the cells were washed with PBS, and 1 mL of fresh culture medium was added. The cells were further incubated for 2, 4, 6, and 24 h at 37 °C. After incubation, the cells were trypsinized (TrypLE™ Express, Thermo Fisher Scientific K.K.). In the same manner, the cells were exposed to the test compounds or distilled water as a negative control for 1 min to evaluate DNA damage immediately after exposure. Immediately after the treatment, the cells were washed and trypsinized. The collected cells were centrifuged and re-suspended in PBS at a density of 1–2 × 10^5 cells/mL. Comet assay was performed as described previously herein (n = 3/group).
(§2) The mean and SD of the % tail DNA and cell viability (%) were calculated for all experimental groups. […] JMP version 15.1.0 was used for all statistical analyses.

[4] = Cytotoxicity assay (Cell Counting Kit-8) after 1 min exposure; type: cell-based, human; settings: human
Protocol: (§3) For cytotoxicity assay, the HCE-T cells were seeded in a 96-well culture plate at a density of 5 × 10^3 cells/well (100 μL/well) and incubated for approximately 24 h. After the 24-h incubation, the cells were washed with PBS. The cells were then exposed to a mixture of 50 μL of serum-free medium and an equal volume of test compounds at twice concentration of final concentration for 1 min at room temperature. After the treatment, the cells were washed with PBS, and 100 μL of fresh culture medium was added. The cells were further incubated for 2, 4, 6, and 24 h at 37 °C. After that, the cells were incubated with 100 μL of Cell Counting Kit-8 (Dojindo Laboratories Co., Ltd., Kumamoto, Japan) diluted to one-tenth with a serum-free medium for 2 h at 37 °C. Absorbance was measured at 450 nm using a microplate reader (Synergy HTX, BioTek Instruments Inc., Winooski, VT). Cell viability was calculated as follows: the absorbance of compound-treated cells/the absorbance of non-treated cells, expressed as a percentage (n = 3/group).
as §2

HCE-T cells [5] = assay: as above; type: cell-based, human
Protocol: as §3, §2

[6] = after single ocular instillation (1% EtBr, 3% MMS, 1% 4-NQO), sampling at 0.5, 2, 4, 6, 24 h

COS(C)(=O)=O [MMS, methyl methanesulfonate]
Time of the peak value of the % tail DNA ([1]; rabbit, in vivo): 0.5 h | % tail DNA, mean ± SD ([1]; rabbit, in vivo, 0.5 h): 66.2 ± 1.8% | % tail DNA, median ([1]; rabbit, in vivo, 0.5 h): 70.8% | Frequency of hedgehog ([1]; rabbit, in vivo, 0.5 h): 12.9 ± 7.8^a % | % tail DNA, mean ± SD ([1]; rabbit, in vivo, 2 h): 63.6 ± 4.4% | % tail DNA, median ([1]; rabbit, in vivo, 2 h): 69.4% | Frequency of hedgehog ([1]; rabbit, in vivo, 2 h): 13.6 ± 8.3^a % | % tail DNA, mean ± SD ([1]; rabbit, in vivo, 4 h): 47.1 ± 7.2% | % tail DNA, median ([1]; rabbit, in vivo, 4 h): 48.9% | Frequency of hedgehog ([1]; rabbit, in vivo, 4 h): 10.7 ± 1.0^a % | % tail DNA, mean ± SD ([1]; rabbit, in vivo, 6 h): 50.1 ± 2.8% | % tail DNA, median ([1]; rabbit, in vivo, 6 h): 56.0% | Frequency of hedgehog ([1]; rabbit, in vivo, 6 h): 8.0 ± 2.0^a % | % tail DNA, mean ± SD ([1]; rabbit, in vivo, 24 h): 40.1 ± 2.4% | % tail DNA, median ([1]; rabbit, in vivo, 24 h): 38.1% | Frequency of hedgehog ([1]; rabbit, in vivo, 24 h): 2.0 ± 1.0^a % | Ophthalmological changes of the anterior ocular segment ([2]; rabbit, in vivo): No abnormal ophthalmological changes | Infiltrate, inflammatory cell, corneal limbus (rabbit cornea): ± | Change of % tail DNA after removing the compound (HCE-T cells [3]): decreased | viability at 2 h [4]: 115 ± 5.1% | viability at 4 h [4]: 108.1 ± 0.3% | viability at 6 h [4]: 108 ± 4.9% | viability at 24 h [4]: 108 ± 11.3% | Cytotoxicity (in words) (HCE-T cells [5]): no cytotoxicity

O=[N+]([O-])c1cc[n+]([O-])c2ccccc12 [4-NQO, 4-nitroquinoline 1-oxide]
Time of the peak value of the % tail DNA [1, 6]: 0.5 h | viability at 2 h ([4]; read-out: Cell viability): 139 ± 2% | viability at 4 h ([4]; read-out: Cell viability): 114 ± 14.5% | viability at 6 h ([4]; read-out: Cell viability): 123 ± 24.2% | viability at 24 h ([4]; read-out: Cell viability): 118 ± 13.9%

CC[n+]1c(-c2ccccc2)c2cc(N)ccc2c2ccc(N)cc21 [EtBr, ethidium bromide]
% tail DNA, median ([1]; 0.5 h after single ocular instillation (1% EtBr, 3% MMS, 1% 4-NQO)): 25.8% | Frequency of hedgehog ([1]; 0.5 h after single ocular instillation (1% EtBr, 3% MMS, 1% 4-NQO), mean ± SD, n = 3): 3.6 ± 2.5% | % tail DNA, mean ± SD ([1]; 0.5 h after single ocular instillation of 50 μL (1% EtBr, 3% MMS, 1% 4-NQO), n = 3 eyes): 31.0 ± 3.0% | % tail DNA, median ([1]; 2 h after single ocular instillation (1% EtBr, 3% MMS, 1% 4-NQO)): 22.6% | Frequency of hedgehog ([1]; 2 h after single ocular instillation (1% EtBr, 3% MMS, 1% 4-NQO), mean ± SD, n = 3): 3.3 ± 1.7% | % tail DNA, mean ± SD ([1]; 2 h after single ocular instillation of 50 μL (1% EtBr, 3% MMS, 1% 4-NQO), n = 3 eyes): 28.1 ± 1.6% | % tail DNA, median ([1]; 4 h after single ocular instillation (1% EtBr, 3% MMS, 1% 4-NQO)): 61.5% | Frequency of hedgehog ([1]; 4 h after single ocular instillation (1% EtBr, 3% MMS, 1% 4-NQO), mean ± SD, n = 3): 8.9 ± 3.5^a % | % tail DNA, mean ± SD ([1]; 4 h after single ocular instillation of 50 μL (1% EtBr, 3% MMS, 1% 4-NQO), n = 3 eyes): 55.3 ± 1.4% | % tail DNA, median ([1]; 6 h after single ocular instillation (1% EtBr, 3% MMS, 1% 4-NQO)): 40.4% | Frequency of hedgehog ([1]; 6 h after single ocular instillation (1% EtBr, 3% MMS, 1% 4-NQO), mean ± SD, n = 3): 1.6 ± 2.3% | % tail DNA, mean ± SD ([1]; 6 h after single ocular instillation of 50 μL (1% EtBr, 3% MMS, 1% 4-NQO), n = 3 eyes): 41.0 ± 6.5% | % tail DNA, median ([1]; 24 h after single ocular instillation (1% EtBr, 3% MMS, 1% 4-NQO)): 5.4% | Frequency of hedgehog ([1]; 24 h after single ocular instillation (1% EtBr, 3% MMS, 1% 4-NQO), mean ± SD, n = 3): 0.4 ± 0.6% | % tail DNA, mean ± SD ([1]; 24 h after single ocular instillation of 50 μL (1% EtBr, 3% MMS, 1% 4-NQO), n = 3 eyes): 10.0 ± 4.0% | Time of the peak value of the % tail DNA [1, 6]: 4 h | Ophthalmological changes of the anterior ocular segment ([2]; 24 h after single ocular instillation (1% EtBr, 3% MMS)): No abnormal ophthalmological changes | Change of % tail DNA after removing the compound (HCE-T cells [3]; 1 min exposure (0.5% EtBr, 0.5% MMS, 0.001% 4-NQO), then 2, 4, 6, 24 h in fresh medium): gradually increased | viability at 2 h ([4]; read-out: Cell viability): 89.3 ± 6.1% | viability at 4 h ([4]; read-out: Cell viability): 74.7 ± 8% | viability at 6 h ([4]; read-out: Cell viability): 73.1 ± 4.6% | viability at 24 h ([4]; read-out: Cell viability): 39.1 ± 1.3% | Cytotoxicity (in words) (HCE-T cells [5]; 24 h after removing the compound, 1 min exposure, 0.5% EtBr): Moderate cytotoxicity | Cytotoxicity (in words) (HCE-T cells [5]; other times (2, 4, 6 h) after removing the compound, 1 min exposure, 0.5% EtBr): slight cytotoxicity
